Results reported in patent US11596150B2, “Long chain glycolipids useful to avoid perishing or microbial contamination of materials” (IMD NATURAL SOLUTIONS GMBH, priority 2011, dated 2023).
Values after ≈ are worked out from the molar mass of the structure shown. Like-named read-outs stand apart in the source and are kept apart here.

Columns and labels:
[1] = system: Bacillus subtilis (ATCC6633); experiment: MIC determination in microtiter plates (non-pathogenic microorganisms); type: cell-based; conditions: 48 h, read-out: MIC values after 48 h
[2] = system: Corynebacterium variabile (DSM20132); experiment: as above; type: cell-based; conditions: 48 h, read-out: MIC values after 48 h
[3] = system: Lactobacillus plantarum (DSM 12028); experiment: as above; type: cell-based; conditions: Lactiplantibacillus plantarum; Lactobacillus plantarum (DSM12028); 48 h; read-out: MIC values after 48 h
[4] = system: Aspergillus niger (ATCC 16404); experiment: as above; type: cell-based; conditions: Aspergillus niger (ATCC16404); 48 h; read-out: MIC values after 48 h
[5] = system: Byssochlamys fulva (DSM62097); experiment: as above; type: cell-based; conditions: Paecilomyces fulvus, 48 h, read-out: MIC values after 48 h
[6] = system: Mucor plumbeus (MUCL49355); experiment: as above; type: cell-based
[7] = system: Dekkera bruxellensis (DSM70726); experiment: as above; type: cell-based; conditions: Brettanomyces bruxellensis, 48 h, read-out: MIC values after 48 h
[8] = system: Dekkera naardenensis (DSM70743); experiment: as above; type: cell-based; conditions: Brettanomyces naardenensis, 48 h, read-out: MIC values after 48 h
[9] = system: Saccharomyces cerevisiae (HT10); experiment: as above; type: cell-based; conditions: 48 h, read-out: MIC values after 48 h
[10] = system: Zygosaccharomyces bailii (DSM70492); experiment: as above; type: cell-based; conditions: 48 h, read-out: MIC values after 48 h
[11] = system: Zygosaccharomyces bisporus (DSM70415); experiment: as above; type: cell-based; conditions: 48 h, read-out: MIC values after 48 h
[12] = system: Zygosaccharomyces florentinus (DSM70506); experiment: as above; type: cell-based; conditions: Zygotorulaspora florentina, 48 h, read-out: MIC values after 48 h
[13] = system: Zygosaccharomyces rouxii (NCYC381); experiment: as above; type: cell-based; conditions: 48 h, read-out: MIC values after 48 h
[14] = system: Staphylococcus aureus (ATCC 6538P); experiment: microbe, parasite or virus in culture; type: cell-based; conditions: ATCC6538P, Mueller-Hinton Broth, 1% DMSO, 20 hours at 36° C., read-out: MIC S. aureus
[15] = system: Clostridium perfringens (ATCC 13124); experiment: microbe, parasite or virus in culture; type: cell-based; conditions: ATCC13124, 48 h
[16] = system: Aspergillus fumigatus (ATCC 1028); experiment: microbe, parasite or virus in culture; type: cell-based
[17] = system: Listeria welshimeri (DSM15452); experiment: MIC determination in microtiter plates (non-pathogenic microorganisms); type: cell-based; conditions: 48 h, read-out: MIC values after 48 h
Excerpt: Various nonpathogenic bacteria, yeasts, and filamentous fungi were obtained from public culture collections and maintained as recommended in the catalogues and protocols of the respective institutions. Saccharomyces cerevisiae strain HT10 and Mucor plumbeus were originally taken from the culture collection of InterMed Discovery GmbH but deposited with MUCL as reference strains for antimicrobial susceptibility testing. These strains were maintained under liquid nitrogen and, prior to the screening, on YMG agar. Prior to the screening the yeast and bacterial strains were grown over night on SDB (medium 1), except for Bacillus subtilis, which was grown on YMG agar (medium 2) for 1 week to prepare spore suspensions. Likewise, the filamentous fungi were pre-incubated on YMG agar for 2-3 weeks to create inoculum for spore suspensions. […] For all experiments, freshly prepared spore suspensions were used. The initial concentrations for the bioassays were adjusted to 1×10^5 CFU (i.e. cells or spores, respectively) per ml. […] To adjust the initial titer prior to the bioassays, the CFU per ml was determined under the microscope using a counting chamber type “Brand Neubauer improved”; BRAND GmbH & Co KG, Wertheim, Germany). This microscopic control also served as means for assessment of the viability of the cells. […]

[18] = system: Talaromyces luteus (CBS348.51); experiment: MIC after 48 h (Example 9); type: cell-based; conditions: Ascospirella lutea
[19] = system: Pyricularia oryzae (DSM62938); experiment: microbe, parasite or virus in culture; type: cell-based; conditions: DSM62938, 48 h, read-out: MIC values after 48 h
[20] = system: Enterococcus faecalis (ATCC19433); experiment: MIC after 48 h (Example 9); conditions: ATCC19433, 48 h, read-out: MIC values after 48 h
[21] = system: Listeria monocytogenes (ATCC19111); experiment: MIC after 48 h (Example 9); conditions: ATCC19111, 48 h, read-out: MIC values after 48 h
[22] = system: Bacillus cereus; experiment: MIC / growth inhibition after 48 h (Example 9); conditions: ATCC11778, 48 h, read-out: MIC values after 48 h
[23] = system: Candida albicans; experiment: MIC / growth inhibition after 48 h (Example 9); conditions: ATCC10231, 48 h, read-out: MIC values after 48 h
[24] = system: Clostridium sporogenes; experiment: MIC / growth inhibition after 48 h (Example 9); conditions: ATCC3584, 48 h, read-out: MIC values after 48 h

SMILES: CCCCC(CCCC(O)C(O)CCCCCCCCCCCCCCC(O)C(=O)O)OC1OCC(O)C(O)C1OC1OCC(O)C(O)C1OC1OC(COC(=O)CC(C)C)C(O)C(O)C1O (stereo not shown) [[12]]
- MIC [1]: 1.6 µg/mL (≈ 1.65 µM)
- MIC [2]: < 0.8 µg/mL
- MIC [3]: 25 µg/mL (≈ 25.7 µM)
- MIC [4]: 6.3 µg/mL (≈ 6.49 µM)
- MIC [5]: 6.3 µg/mL (≈ 6.49 µM)
- MIC ([6]; M. plumbeus (MUCL49355), SDB medium, day not given (Table 19)): 100
- MIC ([6]; M. plumbeus (MUCL49355), SDB medium, day not printed (first line of Table 19)): 50
- MIC ([6]; Mucor plumbeus (MUCL49355), 48 h, read-out: MIC values after 48 h): 6.3 µg/mL (≈ 6.49 µM)
- MIC [7]: 6.3 µg/mL (≈ 6.49 µM)
- MIC [8]: 6.3 µg/mL (≈ 6.49 µM)
- MIC [9]: 6.3 µg/mL (≈ 6.49 µM)
- MIC [10]: 6.3 µg/mL (≈ 6.49 µM)
- MIC [11]: 12.5 µg/mL (≈ 12.9 µM)
- MIC [12]: 6.3 µg/mL (≈ 6.49 µM)
- MIC [13]: 6.3 µg/mL (≈ 6.49 µM)
- MIC [14]: 200 µg/mL (≈ 206 µM)
- MIC ([15]; read-out: MIC C. perfringens): 60 µg/mL (≈ 61.8 µM)
- MIC ([15]; read-out: MIC values after 48 h): 60 µg/mL (≈ 61.8 µM)
- MIC ([16]; Aspergillus fumigatus (ATCC1028), 48 h, read-out: MIC values after 48 h): 20 µg/mL (≈ 20.6 µM)
- MIC ([16]; Aspergillus fumigatus, ATCC1028, 72 h, Potato Dextrose Broth, 1% DMSO, 3 days at 28° C., read-out: MIC A. fumigatus): 20 µg/mL (≈ 20.6 µM)
- MIC [17]: 25 µg/mL (≈ 25.7 µM)
- MIC [18]: 25 µg/mL (≈ 25.7 µM)
- MIC [19]: 25 µg/mL (≈ 25.7 µM)
- MIC [20]: 50 µg/mL (≈ 51.5 µM)
- MIC [21]: 50 µg/mL (≈ 51.5 µM)
- MIC [22]: 12.5 µg/mL (≈ 12.9 µM)
- MIC [23]: 25 µg/mL (≈ 25.7 µM)
- MIC [24]: 50 µg/mL (≈ 51.5 µM)
